# Results as given in article PMC5864050 (PLoS ONE, 2018).
# Structures can show the parent of a compound that is named as a salt. Where two headings read alike, the source gives them in different places.
# How the values were obtained:
# MERS-CoV [1] = test: microbe, parasite or virus in culture; type: cell-based, MERS-CoV Jordan strain (Hu/Jordan-N3/2012); conditions: for EC50: Middle East respiratory syndrome-related coronavirus
# MERS-CoV [2] = type: cell-based, MERS-CoV Jordan strain (Hu/Jordan-N3/2012)
# MERS-CoV [3] = type: cell-based, MERS-CoV Jordan strain (Hu/Jordan-N3/2012); remark: listed apart in the source
# MERS-CoV [4] = type: cell-based, MERS-CoV Jordan strain (Hu/Jordan-N3/2012); remark: listed apart in the source
# MERS-CoV [5] = conditions: cited from earlier work
# MERS-CoV [6] = conditions: read-out: EC50, MERS-CoV infection; cited from earlier work
# in vitro = conditions: human
# Vero E6 cells = conditions: cited from earlier work
# Huh 7 cells = conditions: cited from earlier work
# MERS-CoV and SARS-CoV = conditions: cited from earlier work
# SARS-CoV = conditions: cited from earlier work
SMILES,selectivity index (SI = CC50÷EC50) (MERS-CoV [1]),"EC50 (MERS-CoV [1]; read-out: EC50, antiviral activity against MERS-CoV) [µM]",virus yield reduction (TCID50) (MERS-CoV [2]),virus yield reduction (TCID50) (MERS-CoV [3]),activity against MERS-CoV infection by virus yield reduction (in words) (MERS-CoV [4]),"virus yield reduction (TCID50), drop (MERS-CoV [4]) [log10]",cytotoxicity (in words) (immature MDDCs),EC50 (MERS-CoV [5]) [µM],EC50 (MERS-CoV [6]) [µM],CC50 (in vitro) [µM],cytotoxicity (in words) (Vero E6 cells),CC50 (Huh 7 cells) [µM],toxicity (in words) (MERS-CoV and SARS-CoV),"EC50, antiviral activity against MERS-CoV (MERS-CoV [1])",EC50 (MERS-CoV [1]) [µM],EC50 (SARS-CoV) [µM]
"CN(C)CCCN1c2ccccc2Sc2ccc(Cl)cc21 [CPZ, Chlorpromazine hydrochloride]",1.9,13.6,~2 log10,~2 log10,active,3.1,high cytotoxicity,9.5,4.9,25.6,low cytotoxicity,21.3,–,–,–,–
"CCN(CC)CCCC(C)Nc1ccnc2cc(Cl)ccc12 (stereo not drawn) [CQ, chloroquine diphosphate salt]",–,–,no virus yield reduction,no virus yield reduction,not active,–,–,6.3,–,–,–,–,low toxicity,–,–,–
"CN(C)CCOc1ccc(/C(=C(/CCCl)c2ccccc2)c2ccccc2)cc1 [TOMF, Toremifene citrate]",–,–,1–1.5 log10,1–1.5 log10,not active,–,–,–,–,22.5,–,–,–,too low to determine an EC50,38,12
